US9062051B2, “Compounds and pharmaceutical compositions thereof for the treatment of proliferative disorders” (GALAPAGOS NV, priority 2014, dated 2015)
Where two headings read alike, the source gives them in different places.

How the values were obtained:
Recombinant EphB2 = target: T1, Recombinant EphB2 (Homo sapiens, UniProt P29323); test: EphB2 assay (33P incorporation into poly GT, filter plate); assay type: biochemical; details: read-out: EphB2 potency IC50
T1 construct: purchased Carna 08-129
T1 sequence (P29323 19-986 isoform P29323-2 limits assumed): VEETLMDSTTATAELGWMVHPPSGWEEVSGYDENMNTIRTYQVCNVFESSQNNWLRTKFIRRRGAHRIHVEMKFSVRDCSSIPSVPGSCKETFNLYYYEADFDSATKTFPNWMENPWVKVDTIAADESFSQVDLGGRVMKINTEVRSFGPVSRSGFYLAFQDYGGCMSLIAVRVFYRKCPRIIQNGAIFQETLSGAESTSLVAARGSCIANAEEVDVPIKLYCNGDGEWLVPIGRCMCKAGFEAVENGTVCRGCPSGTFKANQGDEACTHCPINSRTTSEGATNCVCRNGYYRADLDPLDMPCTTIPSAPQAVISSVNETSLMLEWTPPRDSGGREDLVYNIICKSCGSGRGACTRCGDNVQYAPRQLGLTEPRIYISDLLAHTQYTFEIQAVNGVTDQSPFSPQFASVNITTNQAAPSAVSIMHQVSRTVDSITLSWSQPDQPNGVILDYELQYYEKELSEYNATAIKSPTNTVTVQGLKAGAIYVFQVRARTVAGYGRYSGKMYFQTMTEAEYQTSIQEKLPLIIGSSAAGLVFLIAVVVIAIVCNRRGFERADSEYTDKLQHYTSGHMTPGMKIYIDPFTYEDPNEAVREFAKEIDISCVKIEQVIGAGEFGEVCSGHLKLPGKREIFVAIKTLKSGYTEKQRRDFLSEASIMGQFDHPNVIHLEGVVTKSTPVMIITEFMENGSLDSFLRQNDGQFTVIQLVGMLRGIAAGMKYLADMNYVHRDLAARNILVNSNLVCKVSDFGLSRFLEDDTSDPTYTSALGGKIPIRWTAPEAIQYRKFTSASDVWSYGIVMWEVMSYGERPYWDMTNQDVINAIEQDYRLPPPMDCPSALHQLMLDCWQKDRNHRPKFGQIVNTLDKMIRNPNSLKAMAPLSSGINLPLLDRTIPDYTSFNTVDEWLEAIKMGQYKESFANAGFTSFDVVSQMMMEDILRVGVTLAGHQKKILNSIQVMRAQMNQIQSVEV
Protocol: (§1) The principle of the assay consists of the measurement of incorporated ^33P into the substrate poly GT when phosphorylated by the enzyme EphB2 using [^33P]-γ-ATP and ATP. Unincorporated ^33P is removed by loading the samples on a filter plate (using a harvester, Perkin Elmer) and 6 subsequent washing steps. ^33P incorporated in polyGT is measured on a Topcount after addition of microscint to the filter plates (Perkin Elmer).
Recombinant EphB2 (Carna Cat#08-129, 0.6 ng per well) was incubated with 0.05 mg/mL Poly(Glu,Tyr)sodium salt (4:1), MW 20 000-50 000 (Sigma catalog number P0275) in kinase reaction buffer (10 mM MOPS pH 7.2, 5 mM DTT, 0.01% Triton-X100, 5 mM MnCl2, 0.5 mM Na3VO4, 5 mM beta-glycerolphosphate), 0.5 μM non-radioactive ATP, 0.25 μCi/25 μl ^33P-gamma-ATP (Perkin Elmer, catalog number NEG602K) final concentrations with or without 5 μL containing test compound or vehicle (DMSO, 1% final concentration), in a total volume of 25 μL, in a polypropylene 96-well plate (Greiner, V-bottom). After 45 min at 30° C., reactions were stopped by adding of 25 μL/well of 150 mM phosphoric acid. The experiment was then conducted as described for EphA7. The ability of a test compound to inhibit the kinase activity was determined using counts per minutes (cpm) measured by the Topcount as:
(§2) Cpm (cpd): cpm determined for sample with test compound present
(§3) Cpm (control): cpm determined for sample with positive control inhibitor (10 μM staurosporine)
(§4) Cpm (vehicle): cpm determined in the presence of vehicle (1% DMSO)
(§5) Dose dilution series were prepared for the compounds enabling the testing of dose-response effects in the EphB2 assay and the calculation of the IC50 for each compound. Each compound was routinely tested at concentration of 20 μM followed by a 1/5 serial dilution, 10 points in a final concentration of 1% DMSO. When potency of compound series increased, more dilutions may be prepared and/or the top concentration may be lowered (e.g. 5 μM, 1 μM).

Recombinant EphA7 = target: T2, Recombinant EphA7 (Homo sapiens, UniProt Q15375); test: EphA7 assay (33P incorporation into poly GT, filter plate); assay type: biochemical
T2 construct: purchased Carna 08-126
Protocol: as §1, with “EphA7” for “EphB2”
Recombinant EphA7 (Carna Cat#08-126, 2 ng per well) was incubated with 0.1 mg/mL Poly(Glu,Tyr)sodium salt (4:1), MW 20 000-50 000 (Sigma catalog number P0275) in kinase reaction buffer (10 mM MOPS pH 7.2, 5 mM DTT, 0.01% Triton-X100, 5 mM MnCl2, 0.5 mM Na3VO4, 5 mM beta-glycerolphosphate), 0.15 μM non-radioactive ATP, 0.125 μCi/25 μl ^33P-gamma-ATP (Perkin Elmer, catalog number NEG602K) final concentrations with or without 5 μL containing test compound or vehicle (DMSO, 1% final concentration), in a total volume of 25 μL, in a polypropylene 96-well plate (Greiner, V-bottom). After 90 min at 30° C., reactions were stopped by adding of 25 μL/well of 150 mM phosphoric acid. All of the terminated kinase reaction was transferred to prewashed (75 mM phosphoric acid) 96 well filter plates (Perkin Elmer catalog number 6005177) using a cell harvester (Perkin Elmer). Plates were washed 6 times with 300 μL per well of a 75 mM phosphoric acid solution and the bottom of the plates was sealed. 40 μL/well of Microscint-20 was added, the top of the plates was sealed and readout was performed using the Topcount (Perkin Elmer). The ability of a test compound to inhibit the kinase activity was determined using counts per minutes (cpm) measured by the Topcount as:
as §2, §3, §4
as §5, with “EphA7” for “EphB2”

[1] = EphA7 potency, 0.15 μM ATP, read-out: IC50

T2 sequence (Q15375 579-998 limits assumed): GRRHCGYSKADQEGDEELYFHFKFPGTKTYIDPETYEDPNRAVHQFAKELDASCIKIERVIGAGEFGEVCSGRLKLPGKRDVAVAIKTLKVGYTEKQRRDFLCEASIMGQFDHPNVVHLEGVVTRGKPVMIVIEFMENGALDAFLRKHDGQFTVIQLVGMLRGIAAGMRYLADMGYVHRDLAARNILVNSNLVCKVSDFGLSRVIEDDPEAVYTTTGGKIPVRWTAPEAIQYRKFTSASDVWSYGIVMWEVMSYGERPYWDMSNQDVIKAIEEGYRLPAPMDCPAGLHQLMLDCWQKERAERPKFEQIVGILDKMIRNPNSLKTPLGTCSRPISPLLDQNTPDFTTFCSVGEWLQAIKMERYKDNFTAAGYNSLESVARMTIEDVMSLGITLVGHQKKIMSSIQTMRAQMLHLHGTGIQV

| IC50 (Recombinant EphB2) [nM] | IC50 (Recombinant EphA7; [1]) [nM] | IC50 (Recombinant EphA7; comparative compounds, read-out: EphA7 potency IC50) [nM] | Structure (SMILES) |
| --- | --- | --- | --- |
| 25 to 50 | – | – | Cc1ccc(NC(=O)c2cccc(C(F)(F)F)c2)cc1-c1ccc2c(C(O)CN3CCOCC3)n[nH]c2n1 (stereo not shown) [Compound 2, N-{3-[3-(1-Hydroxy-2-morpholin-4-yl-ethyl)-1H-pyrazolo[3,4-b]pyridin-6-yl]-4-methyl-phenyl}-3-trifluoromethyl-benzamide] |
| 50 to 100 | > 1000 | – | Cc1cccc(C(=O)Nc2ccc(C)c(-c3ccc4c(C(O)CN5CCOCC5)n[nH]c4n3)c2)c1 (stereo not shown) [Compound 3, N-{3-[3-(1-Hydroxy-2-morpholin-4-yl-ethyl)-1H-pyrazolo[3,4-b]pyridin-6-yl]-4-methyl-phenyl}-3-methyl-benzamide] |
| 50 to 100 | > 1000 | – | COc1cc(OC)cc(C(=O)Nc2ccc(C)c(-c3ccc4c(C(O)CN5CCOCC5)n[nH]c4n3)c2)c1 (stereo not shown) [Compound 4, N-{3-[3-(1-Hydroxy-2-morpholin-4-yl-ethyl)-1H-pyrazolo[3,4-b]pyridin-6-yl]-4-methyl-phenyl}-3,5-dimethoxy-benzamide] |
| > 100 | 250 to 500 | – | Cc1ccc(C(=O)Nc2cccc(C(F)(F)F)c2)cc1-c1ccc2c(C(O)CN3CCOCC3)n[nH]c2n1 (stereo not shown) [Compound 5, 3-[3-(1-Hydroxy-2-morpholin-4-yl-ethyl)-1H-pyrazolo[3,4-b]pyridin-6-yl]-4-methyl-N-(3-trifluoromethyl-phenyl)-benzamide] |
| 25 to 50 | > 1000 | – | Cc1ccc(NC(=O)c2cccc(N(C)C)c2)cc1-c1ccc2c(C(O)CN3CCOCC3)n[nH]c2n1 (stereo not shown) [Compound 6, 3-Dimethylamino-N-{3-[3-(1-hydroxy-2-morpholin-4-yl-ethyl)-1H-pyrazolo[3,4-b]pyridin-6-yl]-4-methyl-phenyl}-benzamide] |
| 25 to 50 | > 1000 | – | COc1cc(OC)cc(C(=O)Nc2ccc(C)c(-c3ccc4c(C(C)O)n[nH]c4n3)c2)c1 (stereo not shown) [Compound 9, N-{3-[3-(1-Hydroxy-ethyl)-1H-pyrazolo[3,4-b]pyridin-6-yl]-4-methyl-phenyl}-3,5-dimethoxy-benzamide] |
| 0.01 to 25 | > 1000 | – | COc1cc(OC)cc(C(=O)Nc2ccc(C)c(-c3ccc4c(C)n[nH]c4n3)c2)c1 [Compound 11, 3,5-Dimethoxy-N-[4-methyl-3-(3-methyl-1H-pyrazolo[3,4-b]pyridin-6-yl)-phenyl]-benzamide] |
| 50 to 100 | > 1000 | – | CCc1n[nH]c2nc(-c3cc(NC(=O)c4cc(OC)cc(OC)c4)cnc3C)ccc12 [Compound 13, N-[5-(3-Ethyl-1H-pyrazolo[3,4-b]pyridin-6-yl)-6-methyl-pyridin-3-yl]-3,5-dimethoxy-benzamide] |
| 0.01 to 25 | > 1000 | – | Cc1cc(C)cc(C(=O)Nc2ccc(C)c(-c3ccc4c(CO)n[nH]c4n3)c2)c1 [Compound 16, N-[3-(3-Hydroxymethyl-1H-pyrazolo[3,4-b]pyridin-6-yl)-4-methyl-phenyl]-3,5-dimethyl-benzamide] |
| 25 to 50 | – | – | COc1cc(OC)cc(C(=O)Nc2cnc(C)c(-c3ccc4c(C)n[nH]c4n3)c2)c1 [Compound 17, 3,5-Dimethoxy-N-[6-methyl-5-(3-methyl-1H-pyrazolo[3,4-b]pyridin-6-yl)-pyridin-3-yl]-benzamide] |
| 0.01 to 25 | 500 to 1000 | – | CCc1n[nH]c2nc(-c3cc(NC(=O)c4cc(C)cc(OCCN5CCOCC5)c4)ccc3C)ccc12 [Compound 20, N-[3-(3-Ethyl-1H-pyrazolo[3,4-b]pyridin-6-yl)-4-methyl-phenyl]-3-methyl-5-(2-morpholin-4-yl-ethoxy)-benzamide] |
| 0.01 to 25 | > 1000 | – | CCc1n[nH]c2nc(-c3cc(NC(=O)c4cc(C)cc(OCCOC)c4)ccc3C)ccc12 [Compound 21, N-[3-(3-Ethyl-1H-pyrazolo[3,4-b]pyridin-6-yl)-4-methyl-phenyl]-3-(2-methoxy-ethoxy)-5-methyl-benzamide] |
| 0.01 to 25 | > 1000 | – | COc1cc(OC)cc(C(=O)Nc2ccc(C)c(-c3ccc4c(C5(O)CC5)n[nH]c4n3)c2)c1 [Compound 29, N-{3-[3-(1-Hydroxy-cyclopropyl)-1H-pyrazolo[3,4-b]pyridin-6-yl]-4-methyl-phenyl}-3,5-dimethoxy-benzamide] |
| 50 to 100 | > 1000 | – | Cc1ccc(NC(=O)c2cccc(C(F)(F)F)c2)cc1-c1ccc2c(C(C)O)n[nH]c2n1 (stereo not shown) [Compound 35, N-{3-[3-(1-Hydroxy-ethyl)-1H-pyrazolo[3,4-b]pyridin-6-yl]-4-methyl-phenyl}-3-trifluoromethyl-benzamide] |
| > 100 | > 1000 | – | CCc1n[nH]c2nc(-c3cc(NC(=O)c4cc(OC)cc(C(F)(F)F)c4)cnc3C)ccc12 [Compound 49, N-[5-(3-Ethyl-1H-pyrazolo[3,4-b]pyridin-6-yl)-6-methyl-pyridin-3-yl]-3-methoxy-5-trifluoromethyl-benzamide] |
| > 100 | 500 to 1000 | – | CCc1n[nH]c2nc(-c3cc(NC(=O)c4cc(C)cc(C)c4)cnc3C)ccc12 [Compound 50, N-[5-(3-Ethyl-1H-pyrazolo[3,4-b]pyridin-6-yl)-6-methyl-pyridin-3-yl]-3,5-dimethyl-benzamide] |
| 0.01 to 25 | 500 to 1000 | – | Cc1ccc(NC(=O)c2cccc(C(F)(F)F)c2)cc1-c1ccc2c([C@H](C)O)n[nH]c2n1 [Compound 55, N-{3-[3-((S)-1-Hydroxy-ethyl)-1H-pyrazolo[3,4-b]pyridin-6-yl]-4-methyl-phenyl}-3-trifluoromethyl-benzamide] |
| 0.01 to 25 | – | > 1000 | Cc1ccc(NC(=O)c2cccc(C(F)(F)F)c2)cc1-c1cc(C)c2c(N)n[nH]c2n1 [Compound A, N-(3-(3-amino-4-methyl-1H-pyrazolo[3,4-b]pyridin-6-yl)-4-methylphenyl)-3-(trifluoromethyl)benzamide] |
